Source: paper PMC10252891 (Cells, 2023)
In brackets after ≈: the same amount, converted by molar mass. Several values for one entry are separate records, joined by “and”; a condition that tells them apart may be missing. Equal values may be shown once.

Experiments:
[1] = test system: PTZ-induced epileptiform brain discharges in zebrafish larvae; set-up: method as in PMID 34768849; settings: pimpinellin; cited from earlier work
[2] = cited from earlier work
[3] = mammals; cited from earlier work
[4] = LC-MS/MS quantification of whole-body uptake in immersed zebrafish larvae
Experimental: After immersion larvae were plated in 1% BSA for 15 s and washed thoroughly by shaking to remove all compounds from the larvae surface. […] For quantification, six larvae were pooled before homogenization. Three experiments were carried out in independent days.
These were homogenized with the Ultrasonic Processor UP50H (Hielscher): 1 cycle—60% amplitude. The run consisted of two cycles of 15 s with a rest of 50 s in ice for each sample. […] To 100 µL of homogenate 200 µL of the internal standard (IS) Rolipram (Sigma Aldrich, Buchs, Switzerland) (20 ng/mL) for the positive MS experiment, and VPA d-6 (Sigma Aldrich, Buchs, Switzerland) (50 µg/mL) for the negative MS experiment were added. Samples were vortexed for 10 s and then centrifuged at 12,000 rpm for 10 min at 4 °C. After centrifugation, 150 µL of supernatant was transferred into LC-MS vials already containing 120 µL of MilliQ water. Then, 10 µL was injected into the LC-MS/MS system.
A hybrid triple quadrupole 4000 QTRAP mass spectrometer (AB Sciex Concord, ON, Canada) was used with a Shimadzu UFLC (Shimadzu Corporation, Kyoto, Japan) with a cooled auto-sampler. The sample temperature was maintained at 4 °C in the auto-sampler prior to analysis. The LC column was Synergi 4 µm Fusion-RP 80Å C18 50 × 2 mm, Phenomenex, maintained at 45 °C. The system was operated first in positive and after in negative mode with the same elution mobile phases and gradient method. Mobile phases were as follows: water with 0.1% formic acid (solvent A) and methanol with 0.1% formic acid (solvent B). […] The flow rate was 0.80 mL/min. Peaks were integrated, and the analyst software version 1.6.2 (AB Sciex Concord, ON, Canada) was used for quantification. […] Negative mode: Valproic acid m/z 143→143, (IS: Valproic Acid-d6 149→149).

[5] = test system: PTZ-induced seizure-like movements in zebrafish larvae; assay: PTZ-induced seizure-like locomotor tracking in zebrafish larvae; assay type: in vivo, Danio rerio; settings: for decrease of actinteg values of PTZ-treated larvae: 1 h pre-immersion; for decrease of actinteg values of PTZ-treated larvae / decrease of locomotor activity of PTZ-treated larvae: 20 mM PTZ, vs vehicle-PTZ group
Experimental: For immersion 6 days post-fertilization (dpf) and for all measurements, 7-dpf larvae were used. The zebrafish experiments described here were approved by the Local Ethics Committee in Lublin (license no: 109/2018).
All compounds were dissolved in dimethyl sulfoxide (DMSO) and diluted in an embryo medium to achieve a final DMSO concentration of 1% w/v. Embryo medium prepared with DMSO to a final concentration of 1% w/v served as vehicle control (VHC). PTZ (Sigma-Aldrich, Poznań, Poland) was dissolved at a concentration of 40 mM in the embryo medium. The control anticonvulsant agent used in this study was VPN (Sigma-Aldrich, Poznań, Poland).
(§1) 100 µL of embryo medium or 100 µL of a 40 mM PTZ solution was added to obtain a final concentration of 20 mM of PTZ in each well [30]. Larvae were habituated for 5 min in a dark chamber of an automated tracking device (ZebraBox system; Viewpoint, Lyon, France). Then, the locomotor activity without proconvulsant treatment was measured in the dark. The total locomotor activity was quantified using ZebraLab software (Viewpoint, Lyon, France) and was expressed in “actinteg”’ units, which is the sum of all pixel changes detected during the period defined for the experiment. After the evaluation of preincubated larvae movements, PTZ solution was added, and the locomotor behavior was measured for 30 min for each condition. All tracking experiments were performed at least in triplicate.

[6] = treated humans; cited from earlier work
[7] = test system: zebrafish larvae; assay: Locomotor activity of zebrafish larvae without proconvulsant treatment; assay type: in vivo, Danio rerio
Experimental: as §1

[8] = test system: zebrafish larvae whole-body metabolites; assay: Amino acid and neurotransmitter quantification (targeted metabolomics) in zebrafish larvae whole-body; assay type: in vivo, Danio rerio; settings: PTX 20 μM, 18 h immersion
Experimental: For quantification, six larvae were pooled before homogenization. Three experiments were carried out in independent days.
The samples were prepared as described before. To 80 µL of the homogenate 320 µL of MeOH was added to precipitate proteins at a volume dilution […]. After centrifugation at max speed (20,000 rpm) at 4 °C for 10 min, 50 µL were diluted with 200 µL of 1:1 MeOH:1 mM EDTA in Water (Dil 1:4). Samples were centrifuged at max speed at 4 °C for 10 min, and 50 µL were taken into the LC-MS insert vials, 5 µL of the internal standard mix (ethanolamine_d4, dopamine_d4, methionine_d3, serine_d3, lysine_d4 glycine_d5, and acetylcholine_d4) was added to all vials.
The LC column used was Imtakt Intrada amino acid WAA34, 100 × 3 mm; 3 µm, maintained at 35 °C. The system was operated in positive mode. Mobile phases were: 100 mM Ammonium formate in water (mobile phase A) and 95:5:0.3 acetonitrile:water:formic acid (mobile phase B).

[9] = molecular target: T1, LAT1 (Homo sapiens, UniProt Q01650); assay: [3H]-L-leucine uptake inhibition in MDST8-LAT1 cells; assay type: cell-based; settings: LAT1 transfected cells
T1 construct: expressed in transfected cells; host or cells: MDST8-LAT1 cells
T1 sequence (Q01650 whole entry): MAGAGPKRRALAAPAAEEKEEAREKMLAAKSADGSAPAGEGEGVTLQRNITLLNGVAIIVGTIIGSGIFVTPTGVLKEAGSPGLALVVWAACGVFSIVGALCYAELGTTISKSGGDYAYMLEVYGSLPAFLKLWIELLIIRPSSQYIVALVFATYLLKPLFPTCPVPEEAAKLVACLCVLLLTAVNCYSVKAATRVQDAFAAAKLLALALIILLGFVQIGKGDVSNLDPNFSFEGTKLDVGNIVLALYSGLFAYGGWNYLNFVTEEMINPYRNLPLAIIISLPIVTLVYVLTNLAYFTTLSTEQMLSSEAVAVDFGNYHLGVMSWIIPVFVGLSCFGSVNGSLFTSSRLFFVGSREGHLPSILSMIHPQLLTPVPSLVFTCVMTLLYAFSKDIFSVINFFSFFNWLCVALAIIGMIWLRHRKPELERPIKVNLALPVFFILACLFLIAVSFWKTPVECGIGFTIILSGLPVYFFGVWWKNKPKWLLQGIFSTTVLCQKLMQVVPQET
T1 sequence (P08195 102-630 partner): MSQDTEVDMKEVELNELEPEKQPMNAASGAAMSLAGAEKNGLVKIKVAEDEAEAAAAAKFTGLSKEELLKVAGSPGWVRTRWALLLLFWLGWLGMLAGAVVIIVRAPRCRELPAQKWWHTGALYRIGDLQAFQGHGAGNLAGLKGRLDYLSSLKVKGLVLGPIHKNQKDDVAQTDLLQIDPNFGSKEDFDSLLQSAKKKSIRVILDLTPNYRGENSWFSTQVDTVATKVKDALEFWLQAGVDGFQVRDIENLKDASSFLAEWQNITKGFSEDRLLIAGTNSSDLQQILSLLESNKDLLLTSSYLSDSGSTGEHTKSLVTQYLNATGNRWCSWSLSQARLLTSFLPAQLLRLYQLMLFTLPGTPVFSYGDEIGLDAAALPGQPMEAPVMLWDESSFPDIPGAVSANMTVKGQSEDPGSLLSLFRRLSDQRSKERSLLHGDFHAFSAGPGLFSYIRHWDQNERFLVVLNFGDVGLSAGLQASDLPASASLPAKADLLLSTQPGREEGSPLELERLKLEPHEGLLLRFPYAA
Experimental: [3H]-L-Leucine uptake assay
[3H]-L-Leucine uptake assay was performed as previously described [Yan et al., 2021]. Cells were seeded in 96-well plates with opaque bottom (Corning, 353296) at 40-60% confluency, allowing them to attach for 48 hours in a fully supplemented media. Cells were preincubated with different concentrations of […]
Solution (HBSS) containing 125 mM choline-Cl, 25 mM HEPES, 4.8 mM KCl, 1.2 mM MgSO4, 1.2 mM KH2PO4, 1.3 mM CaCl2 and 5.6 mM D-glucose (pH 7.4) and further incubated with the same solution for 7 minutes at 37 °C. [3H]-l-Leucine uptake was assessed in the same solution containing 10 nM “hot” [3H]-L-Leucine (60 Ci/mmol) (Anawa, 0140A-1) + 30 μM “cold” L-leucine. In case of 5 μM JPH203, the same procedure was followed without PTX preincubation. After 3 minutes, the solution was removed, and the cells were washed with ice-cold Na+-free HBSS to terminate the uptake. Cells were lysed with scintillation solvent MicroScint-20 (Perkin-Elmer Life Sciences, 6013621) and the radioactivity was measured with a scintillation counter (TopCount NXT, Perkin-Elmer Life Sciences).
*Yan R, Li Y, Müller J, Zhang Y, Singer S, Xia L, Zhong X, Gertsch J, Altmann KH, Zhou Q. Mechanism of substrate transport and inhibition of the human LAT1-4F2hc amino acid transporter. Cell Discov.

[10] = test system: PTZ-induced epileptiform brain discharges in zebrafish larvae; assay: Local field potential (LFP) recordings, power spectral density (PSD) analysis, PTZ-induced seizure model; assay type: in vivo, Danio rerio; settings: PTX 20 µM, 18 h immersion, mean PSD over the 1–50 Hz region, 20 mM PTZ
Experimental: Non-invasive local field potential (LFP) was recorded from the optic tectum of zebrafish as described before. Before the recording, the treated larvae were immersed for 15 min in 100 µL of VHC or 20 mM PTZ. After immersion, a larva was immobilized in 2% low melting agarose (Invitogen, Waltham, MA, USA) and the signal electrode (Hilgenberg, Germany) was placed on the surface of the head above the optic tectum. The differential signal between the recording electrode and the reference electrode was amplified 10,000 times by EXT-02F/2 extracellular amplifier (NPI Electronic, Tamm, Germany), band pass filtered at 3–300 Hz and digitized at 2 kHz via a PCI-6251 interface (National Instruments, Austin, Texas, USA) with WinEDR (John Dempster, University of Strathclyde, Glasgow, Scotland). A HumBug noise eliminator (Quest Scientific, Hofheim, Germany) was used to remove 50–60 Hz noise. The recordings and the quantification of the signal from epileptiform brain discharges by Welch’s power spectral density (PSD) analysis were performed as described before.

COc1c(OC)c2occc2c2oc(=O)ccc12 [Pimpinellin, pimpinellin]
decrease of normalized PSD [1]: 81%

CCCC(CCC)C(=O)O [VPA, valproic acid]
solubility in aqueous solutions [2]: 1200 µg/mL (≈ 8.32 mM)

CCCC(CCC)C(=O)O [VPN, sodium valproate]
oral bioavailability [3]: ~ 90%
% Absorbed ([4]; VPN/VPA 100 µM, 1 h immersion): ~ 6%
% Absorbed ([4]; VPN/VPA 100 µM, 1 h immersion, listed as VPN/VPA): 6.5%
% Absorbed ([4]; VPN/VPA 500 µM, 1 h immersion): 2.3%
% Absorbed ([4]; VPN/VPA 1 mM, 1 h immersion): 3.3%
% Absorbed ([4]; VPN/VPA 5 mM, 5 min immersion): 0.77%
% Absorbed ([4]; VPN/VPA 5 mM, 5 min immersion, listed as VPN/VPA): 0.8%
% Absorbed ([4]; VPN/VPA 5 mM, 30 min immersion): 1.44%
% Absorbed ([4]; VPN/VPA 5 mM, 30 min immersion, listed as VPN/VPA): 1.4%
% Absorbed ([4]; VPN/VPA 5 mM, 1 h immersion): 2.52%
% Absorbed ([4]; VPN/VPA 5 mM, 1 h immersion, listed as VPN/VPA): 2.5%
% Absorbed ([4]; VPN/VPA 5 mM, 18 h immersion (metabolism)): 0.76% (metabolism)
% Absorbed ([4]; VPN/VPA 5 mM, without larvae): 100%
Measured concentration ([4]; VPN/VPA 5 mM, without larvae): 734,333 ± 5859 ng/g and 5092 ± 40.6 µM
concentration at 1 h ([4]; zebrafish (Danio rerio) larvae, whole-body larvae homogenate, other: immersion in compound-containing medium, 100 µM, Measured concentration in larvae whole-body, VPN/VPA 100 µM, 1 h immersion): 941 ng/g and 6.5 µM
concentration at 1 h ([4]; zebrafish (Danio rerio) larvae, whole-body larvae homogenate, other: immersion in compound-containing medium, 500 µM, Measured concentration in larvae whole-body, VPN/VPA 500 µM, 1 h immersion): 1680 ng/g and 11.6 µM
concentration at 1 h ([4]; zebrafish (Danio rerio) larvae, whole-body larvae homogenate, other: immersion in compound-containing medium, 1 mM, Measured concentration in larvae whole-body, VPN/VPA 1 mM, 1 h immersion): 4740 ng/g and 32.9 µM
concentration at 5 min ([4]; zebrafish (Danio rerio) larvae, whole-body larvae homogenate, other: immersion in compound-containing medium, 5 mM, Measured concentration in larvae whole-body, VPN/VPA 5 mM, 5 min immersion): 5600 ng/g and 38.8 µM
concentration at 30 min ([4]; zebrafish (Danio rerio) larvae, whole-body larvae homogenate, other: immersion in compound-containing medium, 5 mM, Measured concentration in larvae whole-body, VPN/VPA 5 mM, 30 min immersion): 10400 ng/g and 71.9 µM
concentration at 1 h ([4]; zebrafish (Danio rerio) larvae, whole-body larvae homogenate, other: immersion in compound-containing medium, 5 mM, Measured concentration in larvae whole-body, VPN/VPA 5 mM, 1 h immersion): 18200 ng/g
concentration at 18 h ([4]; zebrafish (Danio rerio) larvae, whole-body larvae homogenate, other: immersion in compound-containing medium, 5 mM, Measured concentration in larvae whole-body, VPN/VPA 5 mM, 18 h immersion): 5470 ng/g and 38 µM
concentration at 1 h ([4]; zebrafish (Danio rerio) larvae, whole-body larvae homogenate, other: immersion in compound-containing medium, 5 mM, concentration in larvae whole-body, VPN 5 mM, 1 h): 18200 ± 400 ng/g
concentration at 1 h ([4]; zebrafish (Danio rerio) larvae, whole-body larvae homogenate, other: immersion in compound-containing medium, 10 mM, Measured concentration in larvae whole-body, VPN/VPA 10 mM, 1 h immersion): 33900 ng/g and 235 µM
efficacy against PTZ-induced seizure-like movements ([5]; VPN 5 mM, 1 h): ~ 80%
activity of PTZ-treated larvae vs vehicle-PTZ group ([5]; VPN 5 mM, 18 h immersion, p < 0.001): decreased the activity
therapeutic plasma concentration, total [6]: 300 to 700 µM
therapeutic plasma concentration, unbound [6]: 30 to 100 µM
locomotor activity without PTZ vs vehicle ([7]; VPN 5 mM, 18 h): significant inhibition of the locomotor activity

pteryxin [PTX]
decrease of some AA levels vs control [8]: up to 60%
effect on the LAT1-mediated leucine transport [9]: did not show any effect
decrease of actinteg values of PTZ-treated larvae ([5]; PTX 10 µM): 37.6%
decrease of locomotor activity of PTZ-treated larvae ([5]; PTX 10 µM, 18 h immersion): 61.4%
decrease of actinteg values of PTZ-treated larvae ([5]; PTX 15 µM): 57.6%
decrease of locomotor activity of PTZ-treated larvae ([5]; PTX 15 µM, 18 h immersion): 73.3%
decrease of actinteg values of PTZ-treated larvae ([5]; PTX 20 µM): ~ 70% and 70.6%
decrease of locomotor activity of PTZ-treated larvae ([5]; PTX 20 µM, 18 h immersion): 78.2%
decrease in the PSD values [10]: 99.8%
average movements without PTZ vs vehicle ([7]; PTX 5 µM, 1 h): increased the average movements
locomotor activity without PTZ vs vehicle ([7]; PTX 20 µM, 1 h): decreased locomotor activity
locomotor activity without PTZ vs vehicle ([7]; PTX 20 µM, 18 h): significant inhibition of the locomotor activity
